Reference: patent EP1611148B1, “NOVEL NITRILE GLYCOSIDE USEFUL AS A BIO-ENHANCER OF DRUGS AND NUTRIENTS, PROCESS OF ITS ISOLATION FROM MORINGA OLEIFERA” (Council of Scientific and Industrial Research, priority 2003, dated 2004)

Assays:
B subtilis (MTCC121) = assay: Bioactivity enhancement of antibiotics (killing efficiency, broth assay) against B subtilis; settings: alone or with Niaziridin @ 1.0 µg/ml
M smegmatis (MC^2 155) = assay: Bioactivity enhancement of antibiotics (killing efficiency, broth assay) against M smegmatis; settings: alone or with Niaziridin @ 1.0 µg/ml
[1] = test system: M.tuberculosis H37Rv (ATCC 27294); assay: Bioactivity enhancement of anti-tubercular drugs, radiometric BACTEC 460 TB system; type: cell-based, Mycobacterium tuberculosis
From the text: Since, the bioenhancer compound was able to enhance the activity of antibiotics against Gram (+) bacteria such as M.smegmatis, our subsequent interest was to test the compound against M.tuberculosis H37Rv (ATCC 27294) (Philipp et al 1996; Proc.Natl.Acad.Sci USA 93, 3132-3137), the causal organism of tuberculosis. To accomplish this we employed a radiometric assay using the BACTEC 460 TB system manufactured by M/S Becton Dickinson Ltd., USA. The antimycobacterial property of the drugs in combination with the bioenhancer was studied as per the recommended drug sensitivity protocol prescribed by the manufacturer (BACTEC 460 TB system: Product & Procedure Manual, MA 0029, 1996; Becton Dickinson Co., USA). Briefly the procedure is described below. • (a) The 12 B vials as provided by the manufacture were pre-tested prior to inoculation to establish the recommended CO2 atmosphere. […] After mixing thoroughly, 0.1 ml of this dilution was added into the control 12 B vial (without a drug). • (d) Biosafety precautions were taken as recommended by the manufacturer. • (e) Vials were tested daily in BACTEC 460 TB system for 12 days at approximately the same time each day as recommended by the manufacturer. The mycobacterial growth is expressed as Growth Index (GI) and compared to that of the control vials (antibiotic alone).

[2] = Bioavailability test using gastro-intestinal epithelium (U-tube); type: in vitro ADME, goat; settings: Vitamine B 12, in combination; Figure 3
From the text: Specially designed U-tubes of glass consisting of two components (opposite-L type) were used in which one open end of an L-shaped was tapered to fit within the end of the other L-tube (as described in US Patent # 6,410,059). The membrane of goat gut (initial part) was stretched and fixed to act as the barrier between the two ends such that by joining the two L-tubes, a U-tube was made. Sterile distilled water was then filled in both the sides to equal height/level. The antibiotic/compound was added to the donor tube (tapered) and through spectro-photometer, the transfer of molecule was observed using UV and visible absorption maxima of the respective molecules by taking the OD at defined wavelengths (264 nm for isoniazid).

[3] = test system: Escherichia coli, CA 8000; assay: Enhancement of adsorption of λ phage on bacteria; settings: cells pretreated with niaziridin @ 1 ug/ml
Description: Overnight grown bacterial culture (Escherichia coli, CA 8000) was divided into 5 ml of aliquot each in screw cap tubes. One of the tube with the bacterial culture was treated with niaziridin to a final concentration of 1µg/ml. Both the control and the treated tubes were incubated at 37°C for 4 hours. The cultures were then infected with λ phage (MOI=10) for 10minutes at 37°C (for adsorption) followed by centrifugation at 10000 RPM for 10 minutes at 4°C.
The supernatant and the pellets for both treated and untreated cultures were then compared for the phage titer by plating on top agar containing sensitive bacteria at different dilutions.

C.albicans = assay: Enhancement of anticandidial activity of clotrimazole (broth assay)
E.coli DH5α = assay: Enhancement of bacterial transformation with pUC18 plasmid DNA, strain DH5α
Description: Overnight grown bacterial E.coli DH5α (Sambrook at al^28) cells were diluted to 10 folds in growth medium and treated with niaziridin @1-10µg/ml for 4 hours at 37°C in a shaker (200 RPM).
These log phase cells were then treated with calcium chloride to induce competence and then transformed with pUC18 plasmid DNA and plated on Luria agar plates containing 100µg/ml ampicillin.
The colonies thus appeared, on the plates for both treated and untreated cultures were scored.

E.coli CA8000 = assay: Enhancement of bacterial transformation with pUC18 plasmid DNA, strain CA8000
[4] = anaesthetized rat, 1-10 mg/ kg I.V; cited from earlier work
E.coli (CA8000) = settings: 6 ug/mL
Staphylococcus aurues = settings: in combination with 5-Methoxy hydnocarpin (5-MHC); cited from earlier work
[5] = cells pre treated with niaziridin at 1 ug/ml
[6] = cells pre treated with niaziridin at 10 ug/ml

Compound: CO[C@H]1/C=C/O[C@@]2(C)Oc3c(C)c(O)c4c(O)c(c(/C=N/N5CCN(C)CC5)c(O)c4c3C2=O)NC(=O)/C(C)=C\C=C\[C@H](C)[C@H](O)[C@@H](C)[C@@H](O)[C@@H](C)[C@H](OC(C)=O)[C@@H]1C [Rif, rifampicin]
- Titre (B subtilis (MTCC121); Rif (0.05)): 2.1x10^8
- Titre (M smegmatis (MC^2 155); Rif (0.05)): 1.3x10^7

Compound: CCn1cc(C(=O)O)c(=O)c2ccc(C)nc21 [Nal, nalidixic acid]
- Titre (B subtilis (MTCC121); Nal (2.0)): 3.1x10^7
- Titre (M smegmatis (MC^2 155); Nal (1.0)): 3.7x10^8

Compound: niaziridin
- enhancement of antimycobacterial activity of isoniazid (Growth Index) ([1]; in combination with isoniazid, Figure 2): able to enhance the antimycobacterial activity
- enhancement of antimycobacterial activity of rifampicin (Growth Index) ([1]; in combination with rifampicin, Figure 1): able to enhance the antimycobacterial activity
- uptake of nutrients through the intestinal gut membrane [2]: able to facilitate the uptake of nutrients like Vitamine B 12 through the intestinal gut membrane
- Pellet (10^7pfu) ([3]; MOI 5): 7.7 10^7pfu
- Supernatant (10^7pfu) ([3]; MOI 5): 7.7 10^7pfu
- Pellet (10^7pfu) ([3]; MOI 10): 18.0 10^7pfu
- Supernatant (10^7pfu) ([3]; MOI 10): 8.0 10^7pfu
- enhancement of the antifungal activity of clotrimazole (C.albicans; in combination, observed only at 10ug/ml of the compound): 5-6 folds
- Fold enhancement in DNA transformation (E.coli DH5α; [5]): 1.9 Fold
- Titre (10^4) (E.coli DH5α; [5]): 16.0 10^4
- Fold enhancement in DNA transformation (E.coli DH5α; [6]): 2.3 Fold
- Titre (10^4) (E.coli DH5α; [6]): 20.0 10^4
- Fold enhancement in DNA transformation (E.coli CA8000; [5]): 1.9 Fold
- Titre (10^3) (E.coli CA8000; [5]): 8.30 10^3
- Fold enhancement in DNA transformation (E.coli CA8000; [6]): 5.5 Fold
- Titre (10^3) (E.coli CA8000; [6]): 24.0 10^3

Compound: CN(C)[C@@H]1C(=O)C(C(N)=O)=C(O)[C@@]2(O)C(=O)C3=C(O)c4c(O)cccc4[C@@](C)(O)[C@H]3C[C@@H]12 [Tet, tetracycline]
- Titre (B subtilis (MTCC121); Tet (1.0)): 7.0x10^7
- Titre (M smegmatis (MC^2 155); Tet (2.0)): 1.2x10^8

Compound: COC(=S)NCc1ccc(O[C@@H]2O[C@@H](C)[C@H](O)[C@@H](O)[C@H]2O)cc1 [niazinin A]
- hypotensive and bradycardiac effect [4]: produced hypotensive and bradycardiac effect

Compound: niaziminin B
- hypotensive and bradycardiac effect [4]: produced hypotensive and bradycardiac effect

Compound: CC1(C)S[C@@H]2[C@H](NC(=O)[C@H](N)c3ccccc3)C(=O)N2[C@H]1C(=O)O [Amp, ampicillin]
- % Survival (E.coli (CA8000)): 3.69%
- Titre (B subtilis (MTCC121); Amp (0.01)): 2.9x10^8
- Titre (M smegmatis (MC^2 155); Amp (0.1)): 1.0x10^8

Compound: niaziminin A
- hypotensive and bradycardiac effect [4]: produced hypotensive and bradycardiac effect

Compound: COc1ccc2cc3[n+](cc2c1OC)CCc1cc2c(cc1-3)OCO2 [berberine]
- increase of antimicrobial activity of berberine (Staphylococcus aurues): 200 folds

Compound: Clc1ccccc1C(c1ccccc1)(c1ccccc1)n1ccnc1 [Clotrimazole, clotrimazole]
- Cfu / ml at 36 h (C.albicans; clotrimazole 0.5ug/ml, alone or with Niaziridin 10ug/ml, 36 h): 23.6 x 10^5 Cfu / ml

Compound: CCOC(=S)NCc1ccc(OC2OC(C)C(O)C(O)C2O)cc1 (centres unmarked) [niazimicin]
- hypotensive and bradycardiac effect [4]: produced hypotensive and bradycardiac effect

Compound: niazinin B
- hypotensive and bradycardiac effect [4]: produced hypotensive and bradycardiac effect
